According to patent publication US20250059231A1, “Protease inhibitors” (priority 2021, published 2025):
pIC50: −log10 of the molar value. Counter-ions that a name gives are not always drawn. Like-named read-outs stand apart in the source and are kept apart here. Where a SMILES comes first, the peptide text is derived from it. [ ]: non-standard residue; d: D form. The star is where a group is joined. Phe(4-guanidino) = N=C(N)Nc1ccc(C[C@H](N)C(=O)O)cc1; Palmitoyl = CCCCCCCCCCCCCCCC(=O)*; NHhexadecyl = CCCCCCCCCCCCCCCCN*; X2 = O=C(c1ccc(-c2cccs2)s1)*; Octanoyl = CCCCCCCC(=O)*; NHOctyl = CCCCCCCCN*; Propionyl = CCC(=O)*; X3 = COc1cccc(CN*)c1; NHPr = CCCN*

Experiments:
[1] = biological target: T1, WNV protease (West Nile virus, UniProt P06935); test: WNV protease assay (analogous procedure); type: biochemical
T1 construct: a trypsin-like serine protease domain in the N-terminal region of the flaviviral NS3 proteins
T1 sequence (P06935 1424-1463): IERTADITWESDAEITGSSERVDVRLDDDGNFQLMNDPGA
T1 sequence (P06935 1502-1679): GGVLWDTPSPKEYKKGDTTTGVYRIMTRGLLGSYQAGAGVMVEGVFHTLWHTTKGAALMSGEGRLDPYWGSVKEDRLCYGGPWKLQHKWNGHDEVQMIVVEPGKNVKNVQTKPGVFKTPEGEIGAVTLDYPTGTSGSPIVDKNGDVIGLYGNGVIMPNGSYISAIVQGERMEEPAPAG
Protocol: (§1) By catalytic activity of the protease, the cleaved substrate results in increased fluorescence that can be monitored using a BMG Labtech Fluostar OPTIMA Microtiter fluorescence plate reader (excitation wavelength of 320 nm and a monitored emission wavelength of 405 nm). Dilutions were made starting from 10 mM stock solutions in DMSO and final concentrations were measured in triplicates. The inhibitors were preincubated for 15 min with DENV protease (100 nM) in the assay buffer (50 mM Tris-HCl pH 9.0, ethylene glycol (10% v/v), and 0.0016% Brij 58). The enzymatic reaction was initiated by the addition of the FRET substrate (final concentration 50 μM) to obtain a final assay volume of 100 μL per well. The enzymatic activity was monitored for 15 min and determined as a slope of relative fluorescence units per second (RFU/s) for each concentration. The mean of the triplicates were plotted against the corresponding concentration in CDDVault to determine the IC50-values. Analogous procedures were used to determine the inhibitory potency on WNV (Kühl et al., J. Med. Chem. 2020, 63 (15): 8179-8197) and ZIKA protease (Nitsche et al., ACS Med. Chem. Lett. 2019 Feb. 14; 10 (2): 168-174). For selectivity screening of active candidates, similar biochemical assays with human serine proteases trypsin (Weigel et al., J. Med. Chem. 2015, 58 (19), 7719-7733.) and/or thrombin (Nitsche et al., J. Med. Chem. 2013, 56 (21), 8389-8403) were used.

[2] = biological target: T2, DENV protease (Dengue virus type 2, UniProt P29990); test: biochemical; conditions: read-out: inhibition of DENV
T2 construct: The virus-encoded dengue protease comprises the amino-terminal 180 amino acids of NS3 (NS3pro) of the polyprotein
T2 sequence (P29990 1398-1437): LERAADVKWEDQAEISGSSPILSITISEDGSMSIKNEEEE
T2 sequence (P29990 1476-1653): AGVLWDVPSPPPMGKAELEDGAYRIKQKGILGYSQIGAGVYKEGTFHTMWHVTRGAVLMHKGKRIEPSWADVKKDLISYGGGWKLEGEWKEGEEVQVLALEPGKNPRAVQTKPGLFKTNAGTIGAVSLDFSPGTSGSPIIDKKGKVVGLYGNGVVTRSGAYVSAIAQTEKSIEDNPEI
Protocol: as §1, with “Dilutions” for “By catalytic activity of the protease, the cleaved substrate results in increased fluorescence that can be monitored using a BMG Labtech Fluostar OPTIMA Microtiter fluorescence plate reader (excitation wavelength of 320 nm and a monitored emission wavelength of 405 nm). Dilutions”

[3] = biological target: T3, ZIKA protease (Zika virus, UniProt Q32ZE1); test: biochemical; conditions: for inhibition at 1 µM / inhibition at 50 µM: read-out: inhibition of ZIKV
T3 construct: a trypsin-like serine protease domain in the N-terminal region of the flaviviral NS3 proteins
T3 sequence (Q32ZE1 1499-1676): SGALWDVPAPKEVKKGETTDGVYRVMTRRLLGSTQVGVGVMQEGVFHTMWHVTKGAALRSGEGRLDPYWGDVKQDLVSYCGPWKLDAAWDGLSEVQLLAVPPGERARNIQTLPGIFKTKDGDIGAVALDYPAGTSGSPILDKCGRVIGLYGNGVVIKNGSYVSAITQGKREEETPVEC
T3 sequence (Q32ZE1 1421-1460): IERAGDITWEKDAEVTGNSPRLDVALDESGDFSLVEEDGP
Protocol: as §1

[4] = biological target: T1, WNV protease; test: WNV protease assay (analogous procedure); type: biochemical; conditions: read-out: IC50 for WNNV
[5] = biological target: human Thrombin (Homo sapiens, UniProt P00734); test: Selectivity screening, human serine protease thrombin; type: biochemical; conditions: at 5 μM; read-out: inhibition of human Thrombin
Protocol: as §1

For `CCCCCCCCCCCCCCCC(=O)N[C@@H](CCCCN)C(=O)N[C@@H](C)C(=O)N[C@@H](CCCCN)C(=O)N(C)C` [compound 184] (Palmitoyl-Lys-Ala-Lys-NMe2), the inhibition at 50 µM [1] was ≥ 25% and the inhibition at 50 µM ([2]; at 50 μM) was ≥ 25%.
In the case of `CC(=O)N[C@@H](C)C(=O)N[C@@H](CCCNC(=N)N)C(=O)N[C@@H](CCC(N)=O)C(=O)N[C@@H](CCCCN)B(O)O` [compound 48], the pIC50 [3] was ≥ 4.60, the inhibition at 1 µM [3] was ≥ 10% and the inhibition at 50 µM [3] was ≥ 65%. The inhibition at 50 µM [1] was ≥ 25%, the inhibition at 1 µM [2] was ≥ 20% and the inhibition at 50 µM ([2]; at 50 μM) was ≥ 25%. The pIC50 [4] was ≥ 4.40.
With `CCCCCCCCCCCCCCCC(=O)N[C@@H](CCCCN)C(=O)N[C@@H](C)C(=O)N[C@H](C=O)CCCCN` [compound 186] (Palmitoyl-Lys-Ala-Lys-aldehyde) the inhibition at 5 µM [5] was < 5%, the inhibition at 1 µM ([1]; at 1 μM, read-out: inhibition of WNNV) was ≥ 10% and the inhibition at 50 µM [1] was ≥ 25%. For the same compound, the inhibition at 50 µM ([2]; at 50 μM) was ≥ 25% and the pIC50 [4] was ≥ 4.40.
For `CCCCCCCCCCCCCCCC(=O)N[C@@H](CCCCN)C(=O)N[C@@H](C)C(=O)N[C@@H](CCCCN)B(O)O` [compound 182], the inhibition at 50 µM [1] was ≥ 25%, the inhibition at 50 µM ([2]; at 50 μM) was ≥ 25% and the pIC50 [4] was ≥ 4.40.
With `CCCCCCCCCCCCCCCC(=O)N[C@@H](CCCCN)C(=O)N[C@@H](C)C(=O)N[C@@H](C)C(=O)N[C@H](C=O)CCCCN` [compound 180] (Palmitoyl-KAAK-aldehyde) the inhibition at 5 µM [5] was < 5%, the inhibition at 50 µM [1] was ≥ 25% and the inhibition at 50 µM ([2]; at 50 μM) was ≥ 25%. For the same compound, the pIC50 [4] was ≥ 4.40.
With `CCCCCCCCCCCCCCCC(=O)N[C@@H](C)C(=O)N[C@@H](CCCNC(=N)N)C(=O)N[C@@H](CCC(N)=O)C(=O)N[C@@H](CCCCN)B(O)O` [compound 39] the pIC50 [3] was ≥ 4.60, the inhibition at 1 µM [3] was ≥ 10% and the inhibition at 50 µM [3] was ≥ 65%. The inhibition at 1 µM [2] was ≥ 20%, the inhibition at 50 µM ([2]; at 50 μM) was ≥ 25% and the pIC50 [4] was ≥ 4.40.
In the case of `CCCCCCCCCCCCCCCC(=O)N[C@@H](CCCCN)C(=O)N1CCC[C@H]1C(=O)N[C@@H](C)C(=O)N[C@@H](CCCCN)C(N)=O` [compound 156] (Palmitoyl-KPAK-NH2), the inhibition at 50 µM ([2]; at 50 μM) was ≥ 25% and the pIC50 [4] was ≥ 4.40.
With `CCCCCCCCCCCCCCCC(=O)N[C@H](CCCCN)C(=O)N[C@@H](C)C(=O)N[C@@H](C)C(=O)N[C@@H](Cc1ccccc1)C(N)=O` [compound 193] (Palmitoyl-[dK]AAF-NH2) the inhibition at 50 µM [1] was ≥ 25%, the inhibition at 50 µM ([2]; at 50 μM) was ≥ 25% and the pIC50 [4] was ≥ 4.40.
In the case of `CCCCCCCCCCCCCCCC(=O)N[C@@H](CCCCN)C(=O)N[C@@H](C)C(=O)N[C@@H](Cc1ccccc1)C(N)=O` [compound 192] (Palmitoyl-Lys-Ala-Phe-NH2), the inhibition at 50 µM [1] was ≥ 25% and the inhibition at 50 µM ([2]; at 50 μM) was ≥ 25%.
For `CCCCCCCCCCCCCCCC(=O)N[C@@H](CCCNC(=N)N)C(=O)N[C@@H](CCC(N)=O)C(=O)N[C@@H](CCCCN)B(O)O` [compound 41], the inhibition at 1 µM [2] was ≥ 20%, the inhibition at 50 µM ([2]; at 50 μM) was ≥ 25% and the pIC50 [4] was ≥ 4.40.
For `CCCCCCCCCCCCCCCC(=O)N[C@@H](CCCCN)C(=O)N1CCC[C@H]1C(=O)N[C@@H](C)C(=O)N[C@H](Cc1c[nH]cn1)C(N)=O` [compound 164] (Palmitoyl-KPA[dH]-NH2), the inhibition at 50 µM ([2]; at 50 μM) was ≥ 25%.
For `CCCCCCCCCCCCCCCC(=O)N[C@@H](Cc1c[nH]c2ccccc12)C(=O)N[C@@H](C)C(=O)N[C@@H](C)C(=O)N[C@@H](Cc1c[nH]c2ccccc12)C(N)=O` [compound 191] (Palmitoyl-WAAW-NH2), the inhibition at 50 µM [1] was ≥ 25%.
With `CCCCCCCCCCCCCCCC(=O)N[C@@H](Cc1ccc(NC(=N)N)cc1)C(=O)N[C@@H](CCC(N)=O)C(=O)N[C@@H](Cc1ccccc1)C(N)=O` [compound 68] (Palmitoyl-[Phe(4-guanidino)]-Gln-Phe-NH2) the inhibition at 50 µM ([2]; at 50 μM) was ≥ 25%.
With `CCCCCCCCCCCCCCCC(=O)N[C@@H](CCCNC(=N)N)C(=O)N[C@@H](CCCCN)C(N)=O` [compound 161] (Palmitoyl-Arg-Lys-NH2) the inhibition at 50 µM ([2]; at 50 μM) was ≥ 25%.
For `CCCCCCCCCCCCCCCC(=O)N[C@@H](CCCNC(=N)N)C(=O)N[C@@H](CCC(N)=O)C(=O)N[C@@H](Cc1ccccc1)C(=O)O` [compound 45] (Palmitoyl-Arg-Gln-Phe-OH), the inhibition at 50 µM ([2]; at 50 μM) was ≥ 25%.
For `CCCNC(=O)[C@H](CCCCN)NC(=O)[C@H](CCCCN)NC(=O)[C@H](CCCCN)NC(=O)[C@H](Cc1ccccc1)NC(=O)CC` [compound 23] (Propionyl-FKKK-NHPr), the inhibition at 50 µM ([2]; at 50 μM) was ≥ 25%.
`CCCCCCCCCCCCCCCC(=O)N[C@@H](CCCCN)C(=O)N[C@@H](C)C(=O)N[C@@H](C)C(=O)N[C@H](CCc1ccccc1)c1nnc(C)o1` [compound 3] was tested, and the inhibition at 50 µM ([2]; at 50 μM) was ≥ 25%.
For `CCCCCCCCCCCCCCCCNC(=O)[C@H](CCCCN)NC(=O)[C@H](CCC(N)=O)NC(=O)[C@H](CCCNC(=N)N)NC(=O)[C@H](C)N` [compound 32] (H-ARQK-NHhexadecyl), the inhibition at 50 µM ([2]; at 50 μM) was ≥ 25%.
`COc1cccc(CNC(=O)[C@H](CCCCN)NC(=O)[C@H](CCC(N)=O)NC(=O)[C@H](CCCNC(=N)N)NC(=O)[C@H](C)NC(=O)c2ccc(-c3cccs3)s2)c1` [compound 36] (X2-ARQK-X3) was tested, and the inhibition at 50 µM ([2]; at 50 μM) was ≥ 25%.
In the case of `CCCCCCCCCCCCCCCC(=O)N[C@@H](CCCCN)C(=O)N1CCC[C@H]1C(=O)N[C@@H](C)C(=O)N[C@H](C(N)=O)c1ccc(OCc2ccccc2)cc1` [compound 130], the inhibition at 50 µM ([2]; at 50 μM) was ≥ 25%.
For `CCCCCCCCCCCCCCCC(=O)N[C@@H](CCCCN)C(=O)N[C@@H](C)C(=O)N[C@@H](C)C(=O)N[C@H](C)C(N)=O` [compound 147] (Palmitoyl-KAA[dA]-NH2), the inhibition at 50 µM ([2]; at 50 μM) was ≥ 25%.
`CCCCCCCCCCCCCCCC(=O)N[C@@H](CCc1c[nH]c(N)n1)C(=O)N[C@@H](CCC(N)=O)C(=O)N[C@@H](Cc1ccccc1)C(N)=O` [compound 55, (S)—N1—((S)-1-amino-1-oxo-3-phenylpropan-2-yl)-2-((S)-4-(2-amino-1H-imidazol-4-yl)-2-palmitamidobutanamido)pentanediamide TFA salt] was tested, and the inhibition at 50 µM [2] was ≥ 25%.
For `CCCCCCCCCCCCCCCC(=O)N[C@@H](CCCCN)C(=O)N[C@@H](C)C(=O)N[C@@H](C)C(=O)N[C@H](CCc1c[nH]cn1)C(N)=O` [compound 173], the inhibition at 1 µM [2] was ≥ 20% and the inhibition at 50 µM ([2]; at 50 μM) was ≥ 25%.
With `CCCCCCCCCCCCCCCC(=O)N[C@@H](CCCCN)C(=O)N1CCC[C@H]1C(=O)N[C@@H](C)C(=O)N[C@@H](CCc1ccccc1)c1nnc(C)o1` [compound 4] the inhibition at 50 µM ([2]; at 50 μM) was ≥ 25%.
With `CCCCCCCCNC(=O)[C@H](CCCCN)NC(=O)[C@H](C)NC(=O)[C@H](CCCCN)NC(=O)[C@H](CC(C)C)NC(=O)CCCCCCC` [compound 25] (Octanoyl-LKAK-NHOctyl) the inhibition at 50 µM ([2]; at 50 μM) was ≥ 25%.
With `CCCCCCCCCCCCCCCC(=O)N[C@@H](CCCCN)C(=O)N[C@@H](C)C(=O)N[C@H](CCCCN)C(=O)NS(=O)(=O)C1CC1` [compound 179] the inhibition at 50 µM ([2]; at 50 μM) was ≥ 25%.
For `CCCCCCCCCCCCCCCC(=O)N[C@@H](CCCNC(=N)N)C(=O)N[C@@H](CCC(N)=O)C(=O)N[C@@H](CCCCN)C(=O)c1ccccc1` [compound 42], the inhibition at 50 µM ([2]; at 50 μM) was ≥ 25%.
With `CCCCCCCCCCCCCCCC(=O)N[C@@H](CCCCN)C(=O)N[C@H](C)C(=O)N[C@@H](CCCCN)C(N)=O` [compound 146] (Palmitoyl-Lys-[dA]-Lys-NH2) the inhibition at 50 µM ([2]; at 50 μM) was ≥ 25%.
With `CCCCCCCCCCCCCCCC(=O)N[C@@H](CCCCN)C(=O)N[C@@H](C)C(=O)N[C@@H](CCCCN)C(=O)N(C)OC` [compound 185] the inhibition at 50 µM [1] was ≥ 25% and the inhibition at 50 µM ([2]; at 50 μM) was ≥ 25%.
In the case of `CCCCCCCCCCCCCCCC(=O)N[C@@H](CCCCN)C(=O)N1CCC[C@H]1C(=O)N[C@@H](C)C(=O)N[C@@H](CCCCN)C(=O)O` [compound 126] (Palmitoyl-KPAK-OH), the inhibition at 50 µM ([2]; at 50 μM) was ≥ 25%.
For `CCCCCCCCCCCCCCCC(=O)N[C@@H](CCCCN)C(=O)N[C@@H](C)C(=O)N[C@@H](C)C(=O)N[C@@H](CCCCN)C(O)O` [compound 183], the inhibition at 50 µM [1] was ≥ 25%, the inhibition at 50 µM ([2]; at 50 μM) was ≥ 25% and the pIC50 [4] was ≥ 4.40.
